Test results reported in ChEMBL document CHEMBL3632622, “Synthesis and biological evaluation of novel N-phenyl ureidobenzenesulfonate derivatives as potential anticancer agents. Part 2. Modulation of the ring B” (Eur J Med Chem, 2015).
Activity calls are given as the source filed them. The calls are words filed in the database; no cut-off is given here.

Experiments:
[1] = Antiproliferative activity against human HT1080 cells assessed as growth inhibition incubated for 48 hrs by sulforhodamine B assay; type: functional, cell-based, HT-1080
MCF7 = assay: Antiproliferative activity against human MCF7 cells assessed as growth inhibition incubated for 48 hrs by sulforhodamine B assay; type: functional, cell-based; conditions: MCF7, 48 h
HT-29 = assay: Antiproliferative activity against human HT-29 cells assessed as growth inhibition incubated for 48 hrs by sulforhodamine B assay; type: functional, cell-based; conditions: HT-29, 48 h
M21 [2] = assay: Antiproliferative activity against human M21 cells assessed as growth inhibition incubated for 48 hrs by sulforhodamine B assay; type: functional, cell-based; conditions: M21, 48 h
M21 [3] = assay: Cell cycle arrest in human M21 cells assessed as accumulation at subG1 phase at 7.6 uM after 24 hrs by DAPI staining-based flow cytometry (reference value: 1.5%); type: functional
M21 [4] = assay: Cell cycle arrest in human M21 cells assessed as accumulation at G0/G1 phase at 7.6 uM after 24 hrs by DAPI staining-based flow cytometry (reference value: 65.1%); type: functional
M21 [5] = assay: Cell cycle arrest in human M21 cells assessed as accumulation at S phase at 7.6 uM after 24 hrs by DAPI staining-based flow cytometry (reference value: 17.4%); type: functional
M21 [6] = assay: Cell cycle arrest in human M21 cells assessed as accumulation at G2/M phase at 7.6 uM after 24 hrs by DAPI staining-based flow cytometry (reference value: 16%); type: functional
M21 [7] = assay: Cell cycle arrest in human M21 cells assessed as accumulation at G2/M phase at 1 uM after 24 hrs by DAPI staining-based flow cytometry (reference value: 16%); type: functional
M21 [8] = assay: Cell cycle arrest in human M21 cells assessed as accumulation at G0/G1 phase at 1 uM after 24 hrs by DAPI staining-based flow cytometry (reference value: 65.1%); type: functional
M21 [9] = assay: Cell cycle arrest in human M21 cells assessed as accumulation at subG1 phase at 1 uM after 24 hrs by DAPI staining-based flow cytometry (reference value: 1.5%); type: functional
M21 [10] = assay: Cell cycle arrest in human M21 cells assessed as accumulation at S phase at 1 uM after 24 hrs by DAPI staining-based flow cytometry (reference value: 17.4%); type: functional
M21 [11] = assay: Induction DNA DSBs in human M21 cells assessed as increase in gamma H2AX foci at 1 uM incubated for 24 hrs by DAPI staining based immunocytochemistry; type: cell-based
M21 [12] = assay: Cell cycle arrest in human M21 cells assessed as accumulation at subG1 phase at 8.1 uM after 24 hrs by DAPI staining-based flow cytometry (reference value: 1.5%); type: functional
M21 [13] = assay: Induction DNA DSBs in human M21 cells assessed as increase in gamma H2AX foci at 20 uM incubated for 24 hrs by DAPI staining based immunocytochemistry; type: cell-based
M21 [14] = assay: Cell cycle arrest in human M21 cells assessed as accumulation at G2/M phase at 8.1 uM after 24 hrs by DAPI staining-based flow cytometry (reference value: 16%); type: functional
M21 [15] = assay: Cell cycle arrest in human M21 cells assessed as accumulation at S phase at 8.1 uM after 24 hrs by DAPI staining-based flow cytometry (reference value: 17.4%); type: functional
M21 [16] = assay: Cell cycle arrest in human M21 cells assessed as accumulation at G0/G1 phase at 8.1 uM after 24 hrs by DAPI staining-based flow cytometry (reference value: 65.1%); type: functional
M21 [17] = assay: Cell cycle arrest in human M21 cells assessed as accumulation at G0/G1 phase at 39 uM after 24 hrs by DAPI staining-based flow cytometry (reference value: 65.1%); type: functional
M21 [18] = assay: Cell cycle arrest in human M21 cells assessed as accumulation at subG1 phase at 39 uM after 24 hrs by DAPI staining-based flow cytometry (reference value: 1.5%); type: functional
M21 [19] = assay: Cell cycle arrest in human M21 cells assessed as accumulation at G2/M phase at 39 uM after 24 hrs by DAPI staining-based flow cytometry (reference value: 16%); type: functional
M21 [20] = assay: Cell cycle arrest in human M21 cells assessed as accumulation at S phase at 39 uM after 24 hrs by DAPI staining-based flow cytometry (reference value: 17.4%); type: functional
M21 [21] = assay: Cell cycle arrest in human M21 cells assessed as accumulation at S phase at 4.1 uM after 24 hrs by DAPI staining-based flow cytometry (reference value: 17.4%); type: functional
M21 [22] = assay: Cell cycle arrest in human M21 cells assessed as accumulation at G2/M phase at 4.1 uM after 24 hrs by DAPI staining-based flow cytometry (reference value: 16%); type: functional
M21 [23] = assay: Cell cycle arrest in human M21 cells assessed as accumulation at G0/G1 phase at 4.1 uM after 24 hrs by DAPI staining-based flow cytometry (reference value: 65.1%); type: functional
M21 [24] = assay: Cell cycle arrest in human M21 cells assessed as accumulation at subG1 phase at 4.1 uM after 24 hrs by DAPI staining-based flow cytometry (reference value: 1.5%); type: functional
M21 [25] = assay: Induction DNA DSBs in human M21 cells assessed as increase in gamma H2AX foci at 4.1 uM incubated for 24 hrs by DAPI staining based immunocytochemistry; type: cell-based
M21 [26] = assay: Cell cycle arrest in human M21 cells assessed as accumulation at G2/M phase at 13 uM after 24 hrs by DAPI staining-based flow cytometry (reference value: 16%); type: functional
M21 [27] = assay: Cell cycle arrest in human M21 cells assessed as accumulation at subG1 phase at 13 uM after 24 hrs by DAPI staining-based flow cytometry (reference value: 1.5%); type: functional
M21 [28] = assay: Cell cycle arrest in human M21 cells assessed as accumulation at G0/G1 phase at 13 uM after 24 hrs by DAPI staining-based flow cytometry (reference value: 65.1%); type: functional
M21 [29] = assay: Cell cycle arrest in human M21 cells assessed as accumulation at S phase at 13 uM after 24 hrs by DAPI staining-based flow cytometry (reference value: 17.4%); type: functional
M21 [30] = assay: Cell cycle arrest in human M21 cells assessed as accumulation at S phase at 34 uM after 24 hrs by DAPI staining-based flow cytometry (reference value: 17.4%); type: functional
M21 [31] = assay: Cell cycle arrest in human M21 cells assessed as accumulation at subG1 phase at 34 uM after 24 hrs by DAPI staining-based flow cytometry (reference value: 1.5%); type: functional
M21 [32] = assay: Cell cycle arrest in human M21 cells assessed as accumulation at G0/G1 phase at 34 uM after 24 hrs by DAPI staining-based flow cytometry (reference value: 65.1%); type: functional
M21 [33] = assay: Cell cycle arrest in human M21 cells assessed as accumulation at G2/M phase at 34 uM after 24 hrs by DAPI staining-based flow cytometry (reference value: 16%); type: functional
[34] = Homo sapiens, HT-1080, 48 h, read-out: IC50

Row | SMILES | IC50 (MCF7) [µM] | IC50 [1, 34] [µM] | IC50 (HT-29) [µM] | IC50 (M21 [2]) [µM] | further results
1 | O=C(NCCCl)Nc1ccc(S(=O)(=O)Oc2ccc(O)cc2)cc1 | – | – | – | – | IC50 ([1]; ht-1080): Not Active
2 | O=C(NCCCl)Nc1ccc(S(=O)(=O)Oc2cccc([N+](=O)[O-])c2)cc1 | 18 | 10 | 17 | 17 | –
3 | O=C(NCCCl)Nc1ccc(S(=O)(=O)Oc2cc(F)c(F)c(F)c2)cc1 | 11.3 | 9.8 | 9.9 | 11.3 | –
4 | Cc1ccc(C)c(OS(=O)(=O)c2ccc(NC(=O)NCCCl)cc2)c1 | 1.9 | 1.7 | 1.5 | 1.5 | Activity (M21 [3]): 5.5%; Activity (M21 [4]): 7.2%; Activity (M21 [5]): 11.9%; Activity (M21 [6]): 75.4%
5 | CCNC(=O)Nc1ccc(S(=O)(=O)Oc2ccccc2CC)cc1 | – | 0.36 | – | – | –
6 | O=C(NCCCl)Nc1ccc(S(=O)(=O)Oc2cccc(I)c2)cc1 | 1.8 | 1.4 | 1.3 | 1.2 | Activity (M21 [3]): 3.6%; Activity (M21 [4]): 2%; Activity (M21 [5]): 4.9%; Activity (M21 [6]): 89.5%
7 | Cc1cccc(OS(=O)(=O)c2ccc(NC(=O)NCCCl)cc2)c1 | 7.2 | 5.8 | 6 | 6.2 | –
8 | O=C(NCCCl)Nc1ccc(S(=O)(=O)Oc2ccc(F)cc2)cc1 | 14 | 11 | 12 | 12 | –
9 | CCc1ccc(OS(=O)(=O)c2ccc(NC(=O)NCCCl)cc2)cc1 | 16 | 9.8 | 15 | 16 | –
10 | O=C(NCCCl)Nc1ccc(S(=O)(=O)Oc2ccccc2I)cc1 | 1.51 | 1.2 | 1.5 | 1.9 | Activity (M21 [7]): 15%; Activity (M21 [8]): 36.4%; Activity (M21 [9]): 1.7%; Activity (M21 [10]): 46.9%; Activity (M21 [11]): Active
11 | O=C(NCCCl)Nc1ccc(S(=O)(=O)Oc2ccccc2F)cc1 | 6 | 3.2 | 5.4 | 4 | Activity (M21 [12]): 2.6%; Activity (M21 [13]): Active; Activity (M21 [14]): 34.6%; Activity (M21 [15]): 37.6%; Activity (M21 [16]): 25.2%
12 | COc1ccccc1OS(=O)(=O)c1ccc(NC(=O)NCCCl)cc1 | 19 | 8.3 | 13 | 15 | –
13 | CCc1cccc(OS(=O)(=O)c2ccc(NC(=O)NCCCl)cc2)c1 | 7.1 | 3.8 | 5.6 | 6 | Activity (M21 [17]): 15.2%; Activity (M21 [18]): 5%; Activity (M21 [19]): 68.5%; Activity (M21 [20]): 11.3%
14 | Cc1cc(C)cc(OS(=O)(=O)c2ccc(NC(=O)NCCCl)cc2)c1 | 2.9 | 2.4 | 1.8 | 1.7 | –
15 | N#Cc1ccc(OS(=O)(=O)c2ccc(NC(=O)NCCCl)cc2)cc1 | 19 | 14 | 18 | 19 | –
16 | CCc1ccccc1OS(=O)(=O)c1ccc(NC(=O)NCCCl)cc1 | 4.1 | 1.2 | 3.3 | 2.1 | Activity (M21 [21]): 44.1%; Activity (M21 [22]): 19.2%; Activity (M21 [23]): 34.7%; Activity (M21 [24]): 2%

Row | SMILES | IC50 (MCF7) [µM] | IC50 [1, 34] [µM] | IC50 (HT-29) [µM] | IC50 (M21 [2]) [µM] | further results
17 | Cc1ccc(OS(=O)(=O)c2ccc(NC(=O)NCCCl)cc2)c(C)c1 | 3.9 | 1.3 | 3.6 | 2.1 | Activity (M21 [21]): 46.4%; Activity (M21 [22]): 23.8%; Activity (M21 [25]): Active; Activity (M21 [23]): 28.4%; Activity (M21 [24]): 1.4%
18 | Cc1ccc(OS(=O)(=O)c2ccc(NC(=O)NCCCl)cc2)cc1 | 19 | 12 | 20 | 17 | –
19 | O=C(NCCCl)Nc1ccc(S(=O)(=O)Oc2cccc(Cl)c2)cc1 | 3.7 | 2.6 | 2.8 | 2.6 | Activity (M21 [26]): 80.6%; Activity (M21 [27]): 5.2%; Activity (M21 [28]): 7.2%; Activity (M21 [29]): 7%
20 | CC(C)c1ccccc1OS(=O)(=O)c1ccc(NC(=O)NCCCl)cc1 | 1.8 | 0.84 | 1.5 | 1.5 | Activity (M21 [7]): 23.4%; Activity (M21 [8]): 23.6%; Activity (M21 [9]): 1.2%; Activity (M21 [10]): 51.8%; Activity (M21 [11]): Active
21 | O=C(NCCCl)Nc1ccc(S(=O)(=O)Oc2cccc(Br)c2)cc1 | 2.6 | 2 | 2.1 | 2.2 | Activity (M21 [26]): 92.4%; Activity (M21 [27]): 4.4%; Activity (M21 [28]): 1.6%; Activity (M21 [29]): 1.6%
22 | CC(C)(C)c1ccc(OS(=O)(=O)c2ccc(NC(=O)NCCCl)cc2)cc1 | 17 | 6.8 | 15 | 18 | –
23 | O=C(NCCCl)Nc1ccc(S(=O)(=O)Oc2cccc(F)c2)cc1 | 7.8 | 4.5 | 5.5 | 5.3 | Activity (M21 [30]): 4.4%; Activity (M21 [31]): 6.2%; Activity (M21 [32]): 2.5%; Activity (M21 [33]): 86.9%
24 | CCCc1ccc(OS(=O)(=O)c2ccc(NC(=O)NCCCl)cc2)cc1 | 13 | 5.2 | 11 | 12 | –
25 | COc1ccc(OS(=O)(=O)c2ccc(NC(=O)NCCCl)cc2)cc1OC | 15 | 11 | 13 | 12 | –
26 | Cc1cc(OS(=O)(=O)c2ccc(NC(=O)NCCCl)cc2)cc(C)c1C | 9.4 | 9 | 6.6 | 6.5 | Activity (M21 [17]): 11.4%; Activity (M21 [18]): 8.7%; Activity (M21 [19]): 65.1%; Activity (M21 [20]): 14.8%
27 | O=C(NCCCl)Nc1ccc(S(=O)(=O)Oc2ccc(I)cc2)cc1 | 11 | 8.7 | 9.5 | 11 | –
28 | CN(C)c1ccc(OS(=O)(=O)c2ccc(NC(=O)NCCCl)cc2)cc1 | – | – | – | – | IC50 ([1]; ht-1080): Not Active
29 | O=C(NCCCl)Nc1ccc(S(=O)(=O)Oc2ccccc2)cc1 | 19 | 8.8 | 17 | 16 | –
30 | O=C(NCCCl)Nc1ccc(S(=O)(=O)Oc2ccc(Cl)cc2)cc1 | 7.3 | 5.9 | 6.3 | 6 | Activity (M21 [30]): 6.6%; Activity (M21 [31]): 8.6%; Activity (M21 [32]): 19%; Activity (M21 [33]): 65.8%
31 | COc1ccc(OS(=O)(=O)c2ccc(NC(=O)NCCCl)cc2)cc1 | 23 | 15 | 22 | 17 | –
